Test results as given in US20180318291A1, “USE OF AMINOTHIAZOLE MYD88 SPECIFIC INHIBITOR TJM2010-5” (WUHAN INNAMUNE PHARMACEUTICAL INC. LTD., priority 2015, published 2018).

Key:
[1] = test system: heart of Balb/c mice transplanted to C57bl/6 mice; assay: mice heart transplantation model (graft survival); format: in vivo; conditions: Balb/c heart to C57bl/6; 150 mg/kg intraperitoneal day 0 to day 6; survive up to 100 days
Excerpt: 1) Application of TJM2010-5 in Mice Heart Transplantation Model
Four groups are set in the experiment, which are: control group (conducting heart transplantation without any treatment), CMC group (vehicle control group), TJM2010-5 treatment group (effect detection group) and ciclosporinA (CsA) control group. The specific treatment methods as follows:
Control group: Take and transplant the heart of Balb/c mice to the abdominal cavity of C57bl/6 mice, and no special treatment is provided after operation;
CMC control group: Take and transplant the heart of Balb/c mice to the abdominal cavity of C57bl/6 mice, and provide intraperitoneal injection of sodium carboxymethyl cellulose (0.5% CMC) solution without TJM2010-5 on day 0 to day 6 after the heart transplantation, and the dose is 200 μl.
TJM2010-5 treatment group: Take and transplant the heart of Balb/c mice to the abdominal cavity of C57bl/6 mice, and provide intraperitoneal injection of TJM2010-5 dissolved in CMC on day 0 to day 6 after the heart transplantation, and the dose is 150 mg/kg.
CsA treatment group: Take and transplant the heart of Balb/c mice to the abdominal cavity of C57bl/6 mice, and provide intraperitoneal injection of CsA on day 0 to day 6 after the heart transplantation, and the dose is 15 mg/kg/day. […]

[2] = test system: C57bl/6 mice lymphocytes with Bal b/c DC; assay: mixed lymphocyte culture, T cell proliferation after CpG stimulated DC activation; format: cell-based; conditions: 10, 20, 40 μM, third day, FIG. 8
Experimental: 1. Take the thigh bone of Bal b/c mice, separate the bone marrow cell and add the GMS-CSF and IL-4 cytokines to cultivate marrow-derived DC.
2. Cultivate them until the sixth day, and dissociate the cells to remove immature DC. Conduct centrifugation and suspend them with 1640 medium.
3. Add mitomycin (to let the final concentration up to 50 μg/ml), and conduct water bath at 37° C. for 15 min Wash in 1640 medium and count.
4. Take the spleen of C57bl/6 mice, separate splenic lymphocytes with separating medium of mice lymphocytes and count.
5. Take the splenic lymphocytes of C57bl/6 mice and label CFSE.
6. Mix DC derived from Bal b/c and C57bl/6 mice lymphocytes for the mixed lymphocyte culture. And the grouped as follows:
Control group: Add CPG other than TJM2010-5 in the process of mixed lymphocyte culture.
Experiment group 1: Add CPG and TJM2010-5 in the process of mixed lymphocyte culture, where, the added TJM2010-5 is 10 μM.
Experiment group 2: Add CPG and TJM2010-5 in the process of mixed lymphocyte culture, where, the added TJM2010-5 is 20 μM.
Experiment group 3: Add CPG and TJM2010-5 in the process of mixed lymphocyte culture, where, the added TJM2010-5 is 40 μM.
1. Cultivate them until the third day, collect cells and detect the proliferation of C57bl/6 mice lymphopoiesis with flow cytometer.

C57bl/6 mice kidney IRI = assay: renal ischemia reperfusion injury in mice; format: in vivo
Experimental: 1. Groups: General C57bl/6 group (Control), CMC vehicle group, MYD88KO group, TJ-M2010 group, the 8 mice in each group will be provided with treatment of ischemia reperfusion: narcotize, block the left kidney with vascular clamp, and place them in incubator of 31 C° for 80 min; after that, open it and remove the right kidney, and then close the abdomen. Collect blood 24 hours later to conduct BUN, Cr detection.
2. For TJM2010-5 group and CMC group, provide intraperitoneal injection of TJ-M2010-5 dissolved in 0.5% CMC of 150 mg/kg/d on the day before and the day of operation; for CMC group: inject 0.5% CMC solution of 200 μl.
3. Observe the survival time of mice, and make the survival curve. Send the blood specimen to the pathology department for detection of BUN, Cr.

NOD mice = assay: diabetes mellitus type I model in NOD mice; format: in vivo; conditions: 150 mg/kg/d intraperitoneal, observed 30 weeks, FIG. 4
Experimental: 1. Experimental groups: MyD88KO NOD mice, MyD88KO/+NOD mice, NOD mice TJM2010-5 treatment group.
2. Treatment group: Provide intraperitoneal injection of TJM2010-5 dissolved in 0.5% CMC of 150 mg/kg/d on the day before antigen injection, and on day 0 to day 3, and day 5, 7, 9, 11, 13 and 15 day after injection.
3. Provide intraperitoneal injection of mycobacterium antigen to mice in each group and monitor the concentration constantly.
4. Feed in clean level and observe for 30 weeks, and take the tail venous blood to test the non-fasting blood-glucose. The standard for diabetes modeling is obtaining the blood-glucose no less than 22 mmol/L for 2 times successively.

[3] = test system: lymphocyte subpopulation in receptor spleen; assay: lymphocyte subpopulation in receptor spleen by flow cytometry; format: in vivo, mice; conditions: FIG. 5
Excerpt: In vitro experiment: conduct analysis on lymphocyte subpopulation in receptor spleen receiving stimulation of antigen (homogenic, allogeneic), and flow cytometer detection on CD4+CD25+Foxp3+T cell ratio in receptor receiving TJM2010-5 treatment.
1. Take the receptor spleen of different groups (homogenic, allogenic antigenic stimulation), and grind them to separate lymphocyte;
2. Add the IFN-γ labeled by flow antibody APC and IL-17 labeled by APC, CD25 labeled by APC and Foxp3 labeled by PE.
3. Analyze the lymphocyte subpopulation in receptor spleen of various groups, and the CD4+CD25+Foxp3+T cell ratio in receptor receiving TJM2010-5 treatment with flow cytometry.

## O=C(CCN1CCN(Cc2ccccc2)CC1)Nc1nc(-c2ccccc2)cs1 [TJM2010-5, 3-(4-benzylpiperazin-1-yl)-N-(4-phenylthiazol-2-yl) propanamide]
[1]
  heart allograft surviving up to 100 days: 80%
[2]
  proliferation in T cells with increasing TJM2010-5: reduces
C57bl/6 mice kidney IRI; 150 mg/kg/d intraperitoneal day before and day of operation, FIG. 6
  survival rate after mice kidney IRI: significantly improve
C57bl/6 mice kidney IRI; 150 mg/kg/d intraperitoneal, blood 24 hours later, FIG. 7
  protection of kidney functions (BUN, Cr): better protection effect
NOD mice
  incidence rate of diabetes mellitus type I: equivalent to that of MyD88KO homozygote group
[3]; receptor spleen lymphocytes
  IFN-γ vs CMC control group: significantly lower than that of CMC control group
  IL-17 vs CMC control group: significantly lower than that of CMC control group
[3]; receptor spleen
  CD4+CD25+Foxp3+T cell ratio in receptor: up-regulated significantly
